Experimental data from US4883614A, “Phenyl substituted-2,4,6,8-nonatetraenoic acid” (Hoffman-La Roche Inc., priority 1986, dated 1989).
Where two headings read alike, the source gives them in different places.

Assays:
adjuvant arthritis = assay: chronic adjuvant arthritis test in rats (Table I); type: in vivo, male Charles River Lewis rats; details: for change in vivo at 3 µmol/kg / change in vivo at 95 µmol/kg: Rattus norvegicus, 552 h; for change in vivo at 3 µmol/kg: oral 3 μMol/Kg
Protocol: That the compounds of this invention are effective anti-arthritic agents can be seen from the results obtained when these compounds are administered to rats in accordance with the chronic adjuvant arthritis test system disclosed in Billingham and Davies "Handbook of Experimental Pharmacology" (editors J.R. Vane and S.H. Ferreira) Vol. 50/II, pg. 108-144, Springer-Verlag, Berlin, 1979).
In this procedure, adjuvant arthritis was induced by the subplantar injection on day o of 0.05 ml of adjuvant [a suspension of heat-killed, dessicated Mycobacterium butyricum, 0.5% (w/v), in heavy mineral oil containing 0.2% digitonin] into the right hind paw of male Charles River Lewis rats (120-140g) that were housed individually and given food and water ad lib. paw volumes (both hind paws) were measured immediately after injection of the adjuvant. paw Volumes were also measured, to follow the development of inflammation-induced swelling in the arthritic paws, at intervals of 3 to 7 days by immersion of the paw to the level of the lateral malleolus in a mercury plethysmograph.
Drugs were administered once a day (starting on the day of adjuvant injection) by […] using Tween 80 (polyoxyethylene sorbitan mono-oleate) at a dose of 0.25 ml/100 g body Weight as the vehicle. Arthritic control rats received daily doses of the vehicle only. On day 23-25, the rats were sacrificed, plasma collected and plasma fibrinogen levels determined (ammonium sulfate turbidimetric method) as described by Exner et al., Amer. J. Clin Path, 71:521-527 (1979). Anti-inflammatory activity of the test drugs were determined by comparing the extent of paw swelling (paw volume on a particular day, i.e. day four to day twenty-five, minus the paw volume on day 0) in drug-treated arthritic rats with the extent of paw swelling in the vehicle-treated arthritic rats. Drug induced decreases in the level of plasma fibrinogen. an acute phase protein that is elevated in the plasma of rats with adjuvant-induced arthritis, were also used to quantitate the anti-inflammatory activity.

[1] = test system: adjuvant arthritis in the rat; assay: developing adjuvant arthritis in the rat (Table III); type: in vivo, AHH/R female rats (PVG derived); details: 15 mg.kg^-1 p.o.
Protocol: Animals--AHH/R Female rats (PVG derived with an initial weight range of 110 to 140 g. were used.
Materials--Adjuvant for injection. An homogenized suspension of heat killed M. tuberculosis (Human strains C, DT and PN), 5 mg.Ml^-1 in liquid Paraffin was Prepared.
Method Rats were randomly split into groups of five and adjuvant arthritis was induced by the sub-plantar injection of 0.1 ml of adjuvant susPension into the right hind paw of each rat. Test compounds were administered by intubation each morning commencing the day of adjuvant injection. Two groups of control rats were dosed with the vehicle as was a group of three normal rats included for comparative purposes. Dosing was carried out daily until the end of the test on day 15 except for the first weekend (days 5 & 6). Treatment groups are shown in Table III and include etretinate as standard retinoid.
Measurements of right hind paw volume were made initially and on days 2 and 4 after and adjufant injection (primary phase). Right and left hind paw volume were then measured on day 8 and every two or three days until the end of the experiment on day 15 (secondary phase). At this time the mobility of each ankle joint and the
incidence and severity of secondary lesions on nose, ears, forepaws, left hind paw and tail were also assessed in terms of degrees of flexion possible and by using an arbitrary scoring system, respectively.
The time course curves for the injected paws were integrated from days 0 to 4 to reflect primary swelling and from days 8 to 15 (secondary swelling). The secondary swelling in the non-injected paw was integrated similarly from days 8 to 15. Calculations were carried out using a specific computer program which computed mean ± se for each integrated area. The significance of differences from controls was determined by Student s t test (2 tailed) and percentage reductions from control areas were calculated. Percentage improvements in joint mobility and percentage reductions in lesion score were also determined. In the latter case the Wilcoxon rank sum test (2 tailed) was used to express the difference from the control score using raw data. Mean body weight change in each group was recorded.

[2] = test system: delayed hypersensitivity to methylated bovine serum albumin (MBSA); assay: MBSA delayed hypersensitivity test (Table II)
Protocol: The dose volumes used were 5 ml.kg^-1 for rats and 10 ml.kg^-1 for mice. Controls were dosed with the appropriate volume of arachis oil vehicle.
Animals -- Male and female MFI mice substrain E33. Initial weight approximately 25 gm.
Materials -- Methylated bovine serum albumin (MBSA) (Sigma) Freunds complete adjuvant (Difco)
Method -- Groups of 10 mice were sensitized (day 0) by injecting intradermally at two abdominal. sites 0.05 ml. of a water in oil emulsion of MBSA and Freunds complete adjuvant. On day 9 the mice were challenged by injecting 20 l of a 1% MBSA solution to one paw and 20 l of water into the contralateral paw. Paw volumes were measured 24 hours later by mercury displacement plethysmography. The means percentage increase in paw volume of the MBSA-challenged paw compared with the water challenged paw was calculated for each treatment group. Dosing with vehicle and retinold commenced on day 0 and finished on day 9.

[3] = test system: type II collagen arthritis; assay: established type II collagen arthritis (Table IV); type: in vivo, male and female Alderley Park Strain 1 rats; details: 100 mg.kg^-1 p.o.; male and female rats
Protocol: In all tests, Compound A and the other retinoids tested concurrently were formulated in arachis oil containing 0.05% propylgallate as anti-oxidant. The dose volumes used were 5 ml.kg^-1 for rats and 10 ml.kg^-1 for mice. Controls were dosed with the appropriate volume of arachis oil vehicle.
Animals -- Male and female Alderley Park Strain 1 rats.
Materials -- Type 2 collagen (prepared from bovine nasal septum cartilage), Freunds incomplete adjuvant (Difco).
Method -- Rats were sensitized to type 2 collagen by injecting them intradermally with 1 ml. of a water in oil emulsion consisting of equal parts of a 1 mg.ml^-1 solution of type 2 collagen in 0.45M NaCl, 0.02M Tris, PH 7.4 and Freunds incomplete adjuvant. Rats developing arthritis were allocated on day 15 post sensitization to a control arachis oil treated group (6 male, 4 female) or to the Compound A treated group (6 male, 5 female). Hind paw volume measurements were taken to ensure even distribution of rats between groups. An overnight collection of urine was made on days 15/16 and dosing commenced on day 16. […] Compound A was dosed at 100 mg.kg^-1 p.o. On days 19/20 a second overnight collection of urine was made. […] On day 20 a second hind paw measurement was taken. Rats were then anaesthetised with sodium pentobarbitone, bled, killed and X-rays taken of hind and forepaws. Rats were dosed on days 16-19 inclusive (4 doses).

[4] = test system: 4 hr carrageenan pleurisy; assay: 4 hr carrageenan pleurisy, non-immune inflammation (Table V); type: in vivo, female Alderley Park Strain 1 rats; details: 10 days
Protocol: Animals -- Female Alderley Park Strain 1 rats weighing 170-205 g. at the start of the experiment were used.
Materials -- Lambda -carrageenan. Prepared as a solution in saline and sterilized by autoclaving.
Method -- Compound A was administered orally to groups of 8 rats once daily for 10 days at doses of 10, 30 and 100 mg.kg^-1. Control animals received the vehicle. One hour after the last dose the animals were anesthetised with methohexitone (Brietal, 50 mg.kg-1) and 0.2 ml of 1% lambda carrageenan was injected into the pleural cavity. Four hours later the animals were killed with an overdose of pentobarbitone (Sagatal), the pleural exudate was collected and the pleural cavity was washed out with 2 ml of phosphate-buffered saline (PB$-A, Oxoid). The exudate volume was recorded and cell counts were determined using an automatic cell counter (Coulter). Differential cell counts were performed on exudate smears stained with Giemsa stain in order to determine separately the numbers of polymorphonuclear leucocytes (PMN) and mononuclear cells (MN).
Immediately after recovery of the pleural exudates the tibiae of the animals were excised and their breaking strains were determined.
The body weights of the animals were recorded daily. Statistical analyses were performed using Student's two-tailed t test.
In the following table the dose is in mg per kg per day.

## CCCCCCCCCOc1ccccc1/C=C/C(C)=C/C=C/C(C)=C/C(=O)O [drawing 6]
Adjuvant arthritis; oral 76 μMol/Kg
  Body Weight Gain: +27 g

## CCCCCCCCCOc1ccc(OC)cc1/C=C/C(C)=C/C=C/C(C)=C/C(=O)O
Adjuvant arthritis; oral 75 μMol/Kg
  Body Weight Gain: +27 g

## COc1ccc2c(c1)c(CC(=O)O)c(C)n2C(=O)c1ccc(Cl)cc1 [Indomethacin, reference compound]
Adjuvant arthritis; read-out: % Reduction in Paw Volume On day 23, Left
  change in vivo at 3 µmol/kg: -67%
Adjuvant arthritis; read-out: % Reduction in Paw Volume On day 23, Right
  change in vivo at 3 µmol/kg: -66%

## CCOC(=O)/C=C(C)/C=C/C=C(C)/C=C/c1c(C)cc(OC)c(C)c1C [Etretinate, etretinate]
[1]
  Joint Mobility (% INC): 50%
  Lesion Score (% RDN): 56%
[1]; days 8-15
  % reduction of paw swelling, Secondary (left): 30%
  % reduction of paw swelling, Secondary (right): 67%
[2]; 10 mg.kg^-1 oral, 10 doses
  % (cf. arachis oil control): 46%
[2]; 10 mg.kg^-1 oral, female (F)
  Mean body weight: -2.0 g
[2]; 10 mg.kg^-1 oral, male (M)
  Mean body weight: -0.8 g

## CCCCCCCCCOc1ccccc1/C=C/C(C)=C/C=C/C(C)=C/C(=O)O [Compound A, All(E)-9-[2-(nonyloxy)phenyl]-3,7-dimethyl-2,4,6,8-nonatetraenoic acid]
[3]
  weight during treatment (in words): Both male and female rats lost weight
[4]; 10 mg/kg/day p.o.
  Tibial Breaking Strain (Right + Left) % change: -3.4%
  Tibial Breaking Strain (Right + Left) Mean: 6.5 kg
[4]; 30 mg/kg/day p.o.
  Tibial Breaking Strain (Right + Left) % change: +1.5%
  Tibial Breaking Strain (Right + Left) Mean: 6.8 kg
[4]; 100 mg/kg/day p.o.
  Tibial Breaking Strain (Right + Left) % change: -0.3%
  Tibial Breaking Strain (Right + Left) Mean: 6.7 kg
[2]; 10 mg.kg^-1 oral, female (F)
  Mean body weight: -0.2 g
[2]; 10 mg.kg^-1 oral, male (M)
  Mean body weight: 3.3 g
[2]; 30 mg.kg^-1 oral, female (F)
  Mean body weight: 0.5 g
[2]; 30 mg.kg^-1 oral, male (M)
  Mean body weight: 2.8 g
[2]; 100 mg.kg^-1 oral, female (F)
  Mean body weight: -0.2 g
[2]; 100 mg.kg^-1 oral, male (M)
  Mean body weight: 3.3 g

## CCCCCCCCCOc1cccc(Cl)c1/C=C/C(C)=C/C=C/C(C)=C/C(=O)O
Adjuvant arthritis; oral 75 μMol/Kg
  Body Weight Gain: +35 g

## CC1=C(/C=C/C(C)=C/C=C/C(C)=C\C(=O)O)C(C)(C)CCC1 [reference compound]
Adjuvant arthritis; oral 60 μMol/Kg
  Body Weight Gain: -7 g

## CCCCCCCCNc1ccccc1/C=C/C(C)=C/C=C/C(C)=C/C(=O)OCC
Adjuvant arthritis; oral 75 μMol/Kg
  Body Weight Gain: +24 g

## CC(/C=C/c1ccccc1OCCCCCCCCO)=C\C=C\C(C)=C\C(=O)O
Adjuvant arthritis; oral 95 μMol/Kg, read-out: % Reduction in Paw Volume On day 23, Left
  change in vivo at 95 µmol/kg: -49%
Adjuvant arthritis; oral 95 μMol/Kg, read-out: % Reduction in Paw Volume On day 23, Right
  change in vivo at 95 µmol/kg: -37%
Adjuvant arthritis; oral 95 μMol/Kg
  Body Weight Gain: +27 g
  Plasma fibrinogen % change (reduction): -35%

## CCCCCCCCCOc1cccc(F)c1/C=C/C(C)=C/C=C/C(C)=C/C(=O)O
Adjuvant arthritis; oral 75 μMol/Kg
  Body Weight Gain: +46 g
